# Assay results taken from patent publication US4724237A, “2-substituted-aminomethyl-1,4-benzodiazepines” (Merck & Co., Inc., priority 1984, dated 1988).
# Where a name gives a salt, the structure may show the parent alone. Read-outs that look alike come from different tables or passages of the source. Square brackets hold non-standard residues; d marks the D form. Peptide text beside a SMILES is read from it. * marks the point of attachment. sY = N[C@@H](Cc1ccc(OS(=O)(=O)O)cc1)C(=O)O; Cbz = O=C(OCc1ccccc1)*; Boc = CC(C)(C)OC(=O)*
# Tests used:
# [1] = system: kappa receptor; settings: D. Roemer et al., Nature, 298, 759 (1982); cited from earlier work
# [2] = system: rats; settings: J. E. Morley et al.; cited from earlier work
# [3] = in words; cited from earlier work
# [4] = system: CCK-receptor; settings: structure-function studies, in words; cited from earlier work
# [5] = target: T1, CCK receptor (pancreas) (Rattus norvegicus, UniProt P30551); experiment: CCK receptor binding (pancreas) method, inhibition of ^125 I-CCK-33 binding; parameters: species or system male Sprague-Dawley rat; settings: for effect on the ^125 I-CCK receptor binding assay: additional protease inhibitors in the assay buffer
# T1 construct: The whole pancreas of a male Sprague-Dawley rat (200-350 g); from tissue; host or cells: whole pancreas of male Sprague-Dawley rat, washed membrane homogenate
# T1 sequence (P30551 1-444): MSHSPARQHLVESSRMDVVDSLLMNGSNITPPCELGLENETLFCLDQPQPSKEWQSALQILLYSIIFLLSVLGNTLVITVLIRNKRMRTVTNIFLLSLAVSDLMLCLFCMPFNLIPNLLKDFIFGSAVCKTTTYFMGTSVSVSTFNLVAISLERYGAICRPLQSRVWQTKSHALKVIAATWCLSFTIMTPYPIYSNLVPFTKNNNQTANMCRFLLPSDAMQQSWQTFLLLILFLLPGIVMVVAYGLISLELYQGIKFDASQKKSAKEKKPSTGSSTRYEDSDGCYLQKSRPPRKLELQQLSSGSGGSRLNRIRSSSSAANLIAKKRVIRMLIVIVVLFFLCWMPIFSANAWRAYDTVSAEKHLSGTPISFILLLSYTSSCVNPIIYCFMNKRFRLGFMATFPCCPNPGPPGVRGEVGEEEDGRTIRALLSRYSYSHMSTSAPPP
# Description: (§1) Screening of the novel compounds according to the present invention to determine biological activity and obtain an IC50 value for them, in order to identify significant CCK-antagonism, may be accomplished using an ^125 I-CCK receptor binding assay and in vitro isolated tissue preparations. These tests involve the following:
# CCK receptor binding (pancreas) method
# CCK-33 was radiolabeled with ^125 I-Bolton Hunter reagent (2000 Ci/mmole), as described by Sankara et al. (J. Biol. Chem., 254, 9349-9351, 1979).
# The whole pancreas of a male Sprague-Dawley rat (200-350 g), which had been sacrificed by decapitation, was dissected free of fat tissue and homogenized in 20 volumes of ice-cold 50 mM Tris HCl (pH 7.7 at 25° C.) with a Brinkmann Polytron PT-10. The homogenates were centrifuged at 48,000 g for 10 minutes, then the resulting pellets were resuspended in Tris Buffer, centrifuged as above, and resuspended in 200 volumes of binding assay buffer (50 mM Tris HCl, pH 7.7 at 25° C., 5 mM dithiothreitol, 0.1 mM bacitracin, 1.2 mM phenylmethane sulfonyl fluoride and 0.5 mM o-phenanthroline).
# All assays were run in duplicate or triplicate, and the reaction mixtures were incubated at 37° C. for 30 minutes and centrifuged in a Beckman Microfuge (4 minutes) immediately after adding 1 ml of ice-cold incubation buffer. The supernatant was aspirated and discarded, and the pellets were counted with a Beckman Gamma 5000.
# [6] = target: T2, CCK receptor (brain) (Cavia porcellus, UniProt H0VZC5); experiment: CCK receptor binding (brain) method, inhibition of ^125 I-CCK-33 binding; parameters: species or system male Hartley guinea pig
# T2 construct: The cerebral cortex was dissected and used as a receptor source; from tissue; host or cells: cerebral cortex of male Hartley guinea pig, membrane homogenate
# Protocol: as §1
# CCK receptor binding (brain) method
# CCK-33 was radiolabeled and the binding was performed according to the description for the pancreas method, with modifications according to Saito et al., J. Neurochem., 37, 483-490, 1981.
# Male Hartley guinea pigs (300-500 g) were sacrificed by decapitation, and the brains were removed and placed in ice-cold 50 mM Tris HCl (Trizma-7.4)[pH 7.4 at 25° C.]. The cerebral cortex was dissected and used as a receptor source and each gram of fresh guinea pig brain tissue was homogenized in 10 ml of Tris/Trizma buffer with a Brinkman polytron PT-10. The homogenates were centrifuged at 42,000 g for 15 minutes, then the resulting pellets were resuspended in 80 volumes of binding assay buffer (10 mM N-2-hydroxy-ethyl-piperazine-N'-2-ethanesulfonic acid (HEPES), 5 mM MgCl2, 1 mM ethylene glycol-bis-(β-amino-ethyl-ether-N,N'-tetraacetic acid (EGTA), 0.4% BSA and 0.25 mg/ml bacitracin, pH 6.5).
# The remainder of the binding assay method was as described for the pancreas method, except that the reaction mixtures were incubated at 25° C. for 2 hours before centrifugation.
# [7] = concentration required to cause inhibition of 50% of the ^125 I-CCK binding, pancreas, 37° C., 30 minutes
# T2 sequence (H0VZC5 entry or part of it): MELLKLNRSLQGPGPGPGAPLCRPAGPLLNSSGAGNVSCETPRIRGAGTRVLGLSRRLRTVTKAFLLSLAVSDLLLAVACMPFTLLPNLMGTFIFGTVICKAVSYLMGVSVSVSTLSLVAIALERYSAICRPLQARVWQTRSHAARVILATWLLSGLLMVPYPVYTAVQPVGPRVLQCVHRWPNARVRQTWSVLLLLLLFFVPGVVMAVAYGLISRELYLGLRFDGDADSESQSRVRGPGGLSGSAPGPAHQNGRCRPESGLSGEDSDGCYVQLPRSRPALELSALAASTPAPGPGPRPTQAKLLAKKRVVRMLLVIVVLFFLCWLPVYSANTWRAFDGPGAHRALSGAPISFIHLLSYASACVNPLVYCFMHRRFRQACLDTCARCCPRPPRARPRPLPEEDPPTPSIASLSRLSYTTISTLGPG
Compound,"IC50 [5, 7]","IC50 ([6]; read-out: IC50 CCK, Brain)",IC50 [5],further results
CN1c2ccccc2C(c2ccccc2F)=NCC1CNC(=O)c1ccsc1 (stereo not drawn),,,,"opiate agonism, selectivity for the kappa receptor [1]: opiate-agonist with selectivity for the kappa receptor; food intake [2]: increase food intake in rats"
"CN1c2ccccc2C(c2ccccc2F)=NCC1CNC(=O)c1ccsc1 (single isomer, unassigned; (-)) [(-)-enantiomer]",,,,analgesic activity [3]: preferred for high analgesic activity
CSCC[C@H](NC(=O)OC(C)(C)C)C(=O)N[C@@H](CC(=O)O)C(=O)N[C@@H](Cc1ccccc1)C(N)=O [Boc-Met-Asp-Phe-NH2] (Boc-Met-Asp-Phe-NH2),,,,CCK antagonism [4]: can function as CCK antagonists
CSCC[C@H](NC(=O)[C@H](Cc1ccc(OS(=O)(=O)O)cc1)NC(=O)OCc1ccccc1)C(=O)NCC(=O)N[C@@H](Cc1c[nH]c2ccccc12)C(=O)N[C@@H](CCSC)C(=O)N[C@@H](CC(=O)O)C(N)=O [Cbz-Tyr(SO3 H)-Met-Gly-Trp-Met-Asp-NH2] (Cbz-[sY]MGWMD-NH2),,,,CCK antagonism [4]: can function as CCK antagonists
"CN1c2ccccc2C(c2ccccc2F)=NCC1CNC(=O)c1cc2ccccc2[nH]1 (stereo not drawn) [Example 1, 1-methyl-2-(2'-indolecarbonyl)aminomethyl-5-(2'-fluorophenyl)-2,3-dihydro-1H-1,4,-benzodiazepine]",0.16 µM,14 µM,,
"CN1c2ccccc2C(c2ccccc2F)=NCC1CNC(=O)Cc1cccc2sccc12 (stereo not drawn) [Example 2, 1-methyl-2-(4-thianaphthenemethylcarbonyl)aminomethyl-5-(2'-fluorophenyl)-2,3-dihydro-1H-1,4-benzodiazepine]",0.45 µM,,,IC50 [6]: 23 µM
"CN1c2ccccc2C(c2ccccc2F)=NCC1CNC(=O)[C@@H](O)c1ccccc1 (stereo partly drawn) [Example 3, 1-methyl-2-(2-L-hydroxy-2-phenylacetyl)aminomethyl-5-(2'-fluorophenyl)-2,3-dihydro-1H-1,4-benzodiazepine]",,~100 µM,0.6 µM,
"CN1c2ccccc2C(c2ccccc2F)=NCC1CNC(=O)Cc1c[nH]c2ccccc12 (stereo not drawn) [Example 4, 1-methyl-2-(1H-indol-3-yl)methylcarbonylaminomethyl-5-(2'-fluorophenyl)-2,3-dihydro-1H-1,4-benzodiazepine hydrate]",,56 µM,1 µM,
"COC(=O)[C@H](Cc1ccccc1)NCC1CN=C(c2ccccc2F)c2ccccc2N1C (stereo partly drawn) [Example 5, 1-methyl-2-[1-(S)-1-methoxycarbonyl-2-phenylethylamino]methyl-5-(2'-fluorophenyl)-2,3-dihydro-1H-1,4-benzodiazepine]",,~100 µM,1.6 µM,
"CN1c2ccccc2C(c2ccccc2F)=NCC1CNc1cccc(C(F)(F)F)c1 (stereo not drawn) [Example 6, 1-methyl-2-(3'-trifluoromethylphenyl)aminomethyl-5-(2'-fluorophenyl)-2,3-dihydro-1H-1,4-benzodiazepine]",,~100 µM,2.2 µM,
"CN1c2ccccc2C(c2ccccc2F)=NCC1CNC(=O)[C@H](Cc1c[nH]c2ccccc12)NC(=O)OC(C)(C)C (stereo partly drawn) [Example 7, 1-methyl-2-[2-((1,1-dimethylethoxy)carbonyl)amino-3-(1H-indol-3-yl)propanoyl]aminomethyl-5-(2'-fluorophenyl)-2,3-dihydro-1H-1,4-benzodiazepine]",,,4.1 µM,IC50 [6]: 38.6 µM
"CC(C)COC(=O)NCC1CN=C(c2ccccc2F)c2ccccc2N1C (stereo not drawn) [Example 8, 1-methyl-2-[(2-methylpropoxy)carbonyl]aminomethyl-5-(2'-fluorophenyl)-2,3-dihydro-1H-1,4-benzodiazepine]",5.8 µM,~100 µM,,
"CN1c2ccccc2C(c2ccccc2F)=NCC1CNC(=O)[C@@H](N)Cc1c[nH]c2ccccc12 (stereo partly drawn) [Example 9, 1-methyl-2-[2-amino-3-(1H-indol-3-yl)propanoyl]aminomethyl-5-(2'-fluorophenyl)-2,3-dihydro-1H-1,4-benzodiazepine dihydrochloride sesquihydrate]",,,11.6 µM,IC50 [6]: ~100 µM
"COC(C(=O)NCC1CN=C(c2ccccc2F)c2ccccc2N1C)(c1ccccc1)C(F)(F)F (stereo not drawn) [Example 10, 1-methyl-2-(2-methoxy-2-trifluoromethyl-2-phenylacetyl)aminomethyl-5-(2'-fluorophenyl)-2,3-dihydro-1H-1,4-benzodiazepine]",13 µM,,,IC50 [6]: ~100 µM
"CC(=O)NCSCC(NC(=O)OC(C)(C)C)C(=O)NCC1CN=C(c2ccccc2F)c2ccccc2N1C [Example 11, 1-methyl-2-[2(S)-((1,1-dimethylethoxy)carbonyl)amino-3-acetamidomethylmercaptopropanoyl]aminomethyl-5-(2'-fluorophenyl)-2,3-dihydro-1H-1,4-benzodiazepine hemihydrate]",,,24 µM,
"CN1c2ccccc2C(c2ccccc2F)=NCC1CNC(=O)CCC(=O)OCc1ccccc1 (stereo not drawn) [Example 12, 1-methy-2-benzoylsuccinoylaminomethyl-5-(2'-fluorophenyl)-2,3-dihydro-1H-1,4-benzodiazepine]",45 µM,,,IC50 [6]: 55 µM
"CC(=O)NCSCC(=O)NCC1CN=C(c2ccccc2F)c2ccccc2N1C (stereo not drawn) [Example 13, 1-methyl-2-(acetamidomethylmercaptoacetyl)aminomethyl-5-(2'-fluorophenyl-2,3-dihydro-1H-1,4-benzodiazepine hydrate]",100 µM,~100 µM,,
"CN1c2ccccc2C(c2ccccc2F)NCC1CNC(=O)c1ccsc1 (stereo not drawn) [Example 14, 1-methyl-2-(3-thiophenecarbonyl)aminomethyl-5-(2'-fluorophenyl)-2,3,4,5-tetrahydro-1H-1,4-benzodiazepine]",4.8 µM,~100 µM,,
CSCC[C@H](N)C(=O)N[C@@H](CC(=O)O)C(=O)N[C@@H](Cc1ccccc1)C(N)=O [Met-Asp-Phe-NH2] (H-Met-Asp-Phe-NH2),,,,CCK antagonism [4]: can function as CCK antagonists
CCCC(=O)Nc1nc2c(ncn2[C@@H]2O[C@@H]3COP(=O)(O)O[C@H]3[C@H]2OC(=O)CCC)c(=O)[nH]1 [dibutyryl cyclic GMP],,,,CCK antagonism [4]: most potent
"c1cnc2c(c1)ccc1cccnc12 [o-phenanthroline, reference compound]",,,,effect on the ^125 I-CCK receptor binding assay [5]: no effect
"O=S(=O)(F)Cc1ccccc1 [phenyl-methane sulfonyl fluoride, reference compound]",,,,effect on the ^125 I-CCK receptor binding assay [5]: no effect
